# Measured values from ChEMBL document CHEMBL4396971, “Discovery of potent and orally bioavailable indazole-based glucagon receptor antagonists for the treatment of type 2 diabetes” (Bioorg Med Chem Lett, 2019).
# Experiment: Stability in human liver microsomes assessed as parent compound remaining at 1 uM incubated for 10 mins
# Assay type: ADME, Microsome
# Details: read-out: Stability
row,"remaining at 10 min, 1 µM [%]",Compound
1,89,Cc1c(-c2ccc(C(F)(F)F)cc2Cl)ccc2c1cnn2[C@@H](CC(C)C)c1ccc(C(=O)NCCC(=O)O)cc1

# Experiment: Stability in mouse liver microsomes assessed as parent compound remaining at 1 uM incubated for 10 mins
# Assay type: ADME, Microsome
# Details: microsomes, 10 min, 1 µM
row,Stability [%],Compound
1,121,Cc1c(-c2ccc(C(F)(F)F)cc2Cl)ccc2c1cnn2[C@@H](CC(C)C)c1ccc(C(=O)NCCC(=O)O)cc1

# Experiment: Stability in rat liver microsomes assessed as parent compound remaining at 1 uM incubated for 10 mins
# Assay type: ADME, Microsome
# Details: read-out: Stability
row,"remaining at 10 min, 1 µM [%]",Compound
1,87,Cc1c(-c2ccc(C(F)(F)F)cc2Cl)ccc2c1cnn2[C@@H](CC(C)C)c1ccc(C(=O)NCCC(=O)O)cc1

# Experiment: Stability in dog liver microsomes assessed as parent compound remaining at 1 uM incubated for 10 mins
# Assay type: ADME, Canis lupus familiaris, Microsome
# Details: liver microsomes, read-out: Stability
row,"remaining at 10 min, 1 µM [%]",Compound
1,31,Cc1c(-c2ccc(C(F)(F)F)cc2Cl)ccc2c1cnn2[C@@H](CC(C)C)c1ccc(C(=O)NCCC(=O)O)cc1
